Experimental data as given in publication PMC11163866 (Journal of medicinal chemistry, 2024).
Structures can show the parent of a compound that is named as a salt.

How the values were obtained:
[1] = In vitro metabolic stability in mouse liver microsomes; assay type: in vitro ADME; settings: 1 μM; 0.5 mg/mL microsomes; up to 60 min
[2] = In vitro metabolic stability in human liver microsomes; assay type: in vitro ADME; settings: 1 μM; 0.5 mg/mL microsomes; up to 60 min
Plasmodium yoelli = Plasmodium yoelli infection in mice; assay type: in vivo; settings: unpublished results
L. mexicana = test: In vivo efficacy, murine model of cutaneous leishmaniasis; parameters: species or system BALB/c mice; settings: oral gavage 40–60 mg/kg/d for 10 days
[3] = test system: Salmonella typhimurium TA100 and TA98; test: Ames mutagenicity assay; assay type: cell-based; settings: up to 10 μM, with and without S9
L. mexicana amastigote = assay type: cell-based; settings: Leishmania mexicana, J774.A1, read-out: inhibition at 0.1 μM vs L. mexicana

## C(/NC1CCCCC1)=C1/N=C(c2ccc[nH]2)C2=C1CCCC2.Cl [compound 101, (Z)-N-((3-(1H-Pyrrol-2-yl)-4,5,6,7-tetrahydro-1H-isoindol-1-ylidene)methyl)cyclohexanamine Hydrochloride]
[1]
  metabolic stability (t1/2, min) vs MLM: 33.0 min
[2]
  metabolic stability (t1/2, min) vs HLM: 26.7 min
Plasmodium yoelli
  efficacy in curing Plasmodium yoelli infections in mice: strong efficacy

## CCc1ccc(C2=N/C(=C\NC3CCCCCC3)C(C)=C2C)[nH]1.Cl [compound 110, (Z)-N-((5-Ethyl-3',4'-dimethyl-1H,5'H-[2,2'-bipyrrol]-5'-ylidene)methyl)cycloheptanamine Hydrochloride]
[1]
  metabolic stability (t1/2, min) vs MLM: > 60.0 min
L. mexicana
  in vivo efficacy compared with the other TAs tested: greater efficacy than both 95 and 101
[3]
  Ames mutagenicity result: negative
[2]
  metabolic stability (t1/2, min) vs HLM: > 60.0 min
Plasmodium yoelli
  efficacy in curing Plasmodium yoelli infections in mice: strong efficacy

## COC1=CC(c2ccc(Cc3ccc(OC)cc3)[nH]2)=N/C1=C\NC1CCCCC1.Cl [compound 120, (Z)-N-((4'-Methoxy-5-(4-methoxybenzyl)-1H,5'H-[2,2'-bipyrrol]-5'-ylidene)methyl)cyclohexanamine Hydrochloride]
[1]
  metabolic stability (t1/2, min) vs MLM: 13.8 min
[2]
  metabolic stability (t1/2, min) vs HLM: 19.7 min

## COC1=CC(c2ccc[nH]2)=N/C1=C\N[C@H]1CC[C@H](C)CC1.Cl [compound 47, (1r,4r)-N-((Z)-(4'-Methoxy-1H,5'H-[2,2'-bipyrrol]-5'-ylidene)methyl)-4-methylcyclohexan-1-amine Hydrochloride]
[1]
  metabolic stability (t1/2, min) vs MLM: 11.4 min
[2]
  metabolic stability (t1/2, min) vs HLM: 17.3 min

## CCc1ccc(C2=N/C(=C\NC3CCCCCC3)C(OC)=C2)[nH]1.Cl [compound 117, (Z)-N-((5-Ethyl-4'-methoxy-1H,5'H-[2,2'-bipyrrol]-5'-ylidene)methyl)cycloheptanamine Hydrochloride]
[1]
  metabolic stability (t1/2, min) vs MLM: 7.98 min
[2]
  metabolic stability (t1/2, min) vs HLM: > 60.0 min

## COC1=CC(c2ccc[nH]2)=N/C1=C\Nc1cccc(Cl)c1.Cl [compound 57, (Z)-3-Chloro-N-((4'-methoxy-1H,5'H-[2,2'-bipyrrol]-5'-ylidene)methyl)aniline Hydrochloride]
[1]
  metabolic stability (t1/2, min) vs MLM: 42.0 min
[2]
  metabolic stability (t1/2, min) vs HLM: > 60.0 min

## CCC1=C(CC)/C(=C/N[C@H]2CC[C@H](C)CC2)N=C1c1ccc[nH]1.Cl [compound 95, (1r,4r)-N-((Z)-(3',4'-Diethyl-1H,5'H-[2,2'-bipyrrol]-5'-ylidene)methyl)-4-methylcyclohexan-1-amine Hydrochloride]
[1]
  metabolic stability (t1/2, min) vs MLM: 37.5 min
[2]
  metabolic stability (t1/2, min) vs HLM: 23.3 min
Plasmodium yoelli
  efficacy in curing Plasmodium yoelli infections in mice: strong efficacy

## COC1=CC(c2ccc[nH]2)=N/C1=C\Nc1ccc(OC(F)(F)F)cc1.Cl [compound 54, (Z)-N-((4'-Methoxy-1H,5'H-[2,2'-bipyrrol]-5'-ylidene)methyl)-4-(trifluoromethoxy)aniline Hydrochloride]
[1]
  metabolic stability (t1/2, min) vs MLM: 45.1 min
[2]
  metabolic stability (t1/2, min) vs HLM: > 60.0 min

## COC1=CC(c2ccc[nH]2)=N/C1=C\Nc1ccccc1OC(F)(F)F [compound 59, (Z)-N-((4'-Methoxy-1H,5'H-[2,2'-bipyrrol]-5'-ylidene)methyl)-2-(trifluoromethoxy)aniline Hydrochloride]
L. mexicana amastigote
  inhibition of growth at 0.1 µM: ~30%

## COC1=CC(c2ccc(Cc3ccc(OC)cc3)[nH]2)=N/C1=C\NC1CCCCCC1.Cl [compound 121, (Z)-N-((4'-Methoxy-5-(4-methoxybenzyl)-1H,5'H-[2,2'-bipyrrol]-5'-ylidene)methyl)cycloheptanamine Hydrochloride]
[1]
  metabolic stability (t1/2, min) vs MLM: 14.8 min
[2]
  metabolic stability (t1/2, min) vs HLM: 25.6 min
